We go through 1 compound from patent US10675286B2, “Heterocyclic compounds and uses thereof” (Infinity Pharmaceuticals, Inc., priority 2014, dated 2020).

The test system of one data set is Farage cell line. The data set is described as follows: Combination isobologram in Farage cell line. In kind it is cell-based. The note with it: combination of Compound AA and Compound BB.
The test system of a further data set is LLC tumor brei. Put plainly: LLC tumor brei model, immune cells in tumors. In kind it is in vivo.
Data set [1] in a line: Pharmacokinetics of Compound BB, single and repeat oral dose in CB6F1 female mice. In kind it is in vivo, mouse. The following applies: CB6F1 female mice, 2, 7.5, 15 mg/kg PO. The procedure:
Animals were weighed daily prior to dosing. […] On subsequent dosing days, the animals' condition was noted prior to dosing; the animals were observed within 4 hours of dosing, and at the end of the day.
Samples were collected at pre-dose 0.25, 0.5, 1, 2, 4, 6 and 24 h following the first dose on day 1 and pre-dose (trough), 0.25, 0.5, 1, 2, 4, 6 and 24 h following the final dose on day 3. Animals received a single oral dose daily for 3 consecutive days. Blood was collected by retro-orbital bleeding for all time points on day 1. All other blood sampling was collected by a cardiac puncture. Blood was collected into K2EDTA tubes and placed on wet ice. Within 15 min of collection, the sample was centrifuged at 10,000 rpm at 4° C. for 10 min in a bench top centrifuge and the plasma transferred to a new microcentrifuge tube.

Data set [2] is described as follows: Pharmacokinetics in rodent and non-rodent animal species (ADME characteristics, Table 25). An excerpt: These properties indicate the compound's suitability for in vivo administration.
The subject of data set [3] is CXCL12 stimulated pAKT S473 in T cells and monocytes. The data set is described as follows: Ex vivo whole blood CXCL12 stimulation of phospho-AKT, LLC-bearing mice. In kind it is in vivo, mouse. The note with it: LLC-bearing mice, 3, 7.5 or 15 mg/kg QD PO 12 days, 2 h post dose. The procedure:
C57 BL/6 Albino mice were implanted with 1×10^6 cells in a SC injection in the hind flank. The cell implant material was generated from brei that was passaged from mouse to mouse. Treatment started when tumors were between 160-180 mm^3. Mice were dosed for 12 days, QD, PO with vehicle, 15, 7.5 or 3 mg/kg. On day 12 mice were dosed and terminal blood was collected 2 h post dose by cardiac stick collection. Blood was placed in EDTA K2 collection tube and stored at room temp for PD analysis.
Blood from each animal was aliquotted into 2 plates and warmed to 37° C. degrees. PBS was added to one plate as an unstimulated control. Murine CXCL12/SDF-1 was added to the second plate to a final concentration of 800 ng/mL and plate was returned to the 37° C. degree block. After 2 minutes of incubation, blood was lysed and fixed using paraformaldehyde. Samples were washed and frozen until flow cytometric analysis. T cells were gated using an antibody to CD3 and monocytes were gated as LY6G^− LY6C^high. Intracellular pAKT S473 was measured and percent positive was used for graphing.

The structures appear in SMILES notation.

For the compound `C[C@H](NC(=O)c1c(N)nn2cccnc12)c1cc2cccc(C#Cc3cnn(C)c3)c2c(=O)n1-c1ccccc1` [Compound BB], the “effect of the combination (isobologram)” value with Farage cell line is reported as “synergistic effect”. Moreover, in the data set with LLC tumor brei, the “CD206+ M2 polarized suppressive macrophages” value is reported as “reduces” and the TAMs in tumor entry is “decreased”. In addition, in data set [1], the “Stability in serum (24-hour time course of unbound plasma concentration)” value was “good stability in serum”. Further, the “Clearance and half-life in vivo” value in data set [2] is “low clearance and a long half-life in vivo”. Besides, in data set [3], the “Ex vivo whole blood CXCL12 stimulation of phospho-AKT in T cells (FIG. 58)” value is “inhibits the ex vivo whole blood stimulation of phosphor-AKT in T cells” and the “Ex vivo whole blood CXCL12 stimulation of phospho-AKT in monocytes (FIG. 59)” value is recorded as “inhibits the ex vivo whole blood stimulation of phosphor-AKT in monocytes”.
